Assay results reported in patent US20040029965A1, “Formulations for reducing or eliminating toxicity of enviromental hormones containing ursodeoxycholic acid” (priority 2000, published 2004).

Columns and labels:
C57B1/6J mice [1] = assay: Water uptake of mice after a single subcutaneous injection of TCDD; type: in vivo; parameters: unit not given here
Experimental: (§1) Male C57B1/6J mice of 5 weeks old having the average weight of 18-22 g which had been bred in CRJ (Charles River in Japan) were purchased and used in this example as experimental animals. Those mice were acclimated under the constant breeding condition, i.e. the temperature of 24±1° C., the humidity of 60±10% and the light and darkness cycle of 12 hours, for one week and thereafter, utilized in the experiment.
(§2) The Experimental animals were supplied with Purina powdered feed (purchased from Hae Eun Trade) and supplied with water ad libitum. All the animals were weighed twice a week during experimentation.
(§3) 2,3,7,8-tetrachlorodibenzo-p-dioxin (TCDD) dissolved in toluene (purity of 95% or more as a result of gas chromatography analysis), manufactured by Chem. Services Inc. in USA, was volatilized with nitrogen to obtain powder. The obtained powder was dissolved in a mixed solvent containing acetone and corn oil with a volume ratio of 1:6. The resulting solution each containing 110, 27.5 and 6.9 μg/kg of TCDD was subcutaneously injected to mice at a volume of 5 ml per body weight. […] The mice were supplied with the feed from 10 days before (pre-administration) to 60 days after administration of TCDD (post-administration).
(§4) The results are expressed as Mean±Standard Deviation values. For statistical analysis of the body weight, feed and water uptake, biochemical findings, hematological findings and the weight of organ in an acute toxicity test, verification was performed by one way analysis of variance (ANOVA) in case of equal distribution. In case significance was recognized in ANOVA, the Student's t-test was performed in the levels of p<0.05 and p<0.01.

C57B1/6J mice [2] = assay: Feed uptake of mice after a single subcutaneous injection of TCDD; type: in vivo; parameters: unit not given here
Experimental: as §1, §2, §3, §4

[3] = TCDD 110.0 μg/kg + UDCA 0.25 wt %, 20 days
[4] = TCDD 110.0 μg/kg + UDCA 0.25 wt %, 30 days
[5] = TCDD 110.0 μg/kg + UDCA 0.25 wt %, 40 days
[6] = TCDD 110.0 μg/kg + UDCA 0.5 wt %, 10 days
[7] = TCDD 110.0 μg/kg + UDCA 0.5 wt %, 20 days
[8] = TCDD 110.0 μg/kg + UDCA 0.5 wt %, 30 days
[9] = TCDD 110.0 μg/kg + UDCA 0.5 wt %, 40 days
[10] = TCDD 110.0 μg/kg + UDCA 0.5 wt %, 50 days
[11] = TCDD 110.0 μg/kg + UDCA 0.5 wt %, 60 days

C[C@H](CCC(=O)O)[C@H]1CC[C@H]2[C@@H]3[C@@H](O)C[C@@H]4C[C@H](O)CC[C@]4(C)[C@H]3CC[C@]12C [UDCA, 3α, 7β-dihydroxy-5β-cholanoic acid]
water uptake (C57B1/6J mice [1]; [3]): 3.83 ± 0.14
water uptake (C57B1/6J mice [1]; [4]): 4.67 ± 0.94
water uptake (C57B1/6J mice [1]; [5]): 4.14 ± 0.20
water uptake (C57B1/6J mice [1]; [6]): 3.75 ± 0.50
water uptake (C57B1/6J mice [1]; [7]): 3.42 ± 0.80
water uptake (C57B1/6J mice [1]; [8]): 4.20 ± 0.28
water uptake (C57B1/6J mice [1]; [9]): 3.50 ± 0.71
water uptake (C57B1/6J mice [1]; [10]): 3.14 ± 0.59
water uptake (C57B1/6J mice [1]; [11]): 3.32 ± 0.33
feed uptake (C57B1/6J mice [2]; TCDD 6.9 μg/kg + UDCA 0.125 wt %, 10 days): 4.64 ± 0.73
feed uptake (C57B1/6J mice [2]; TCDD 6.9 μg/kg + UDCA 0.125 wt %, 20 days): 4.55 ± 0.44
feed uptake (C57B1/6J mice [2]; TCDD 6.9 μg/kg + UDCA 0.125 wt %, 30 days): 3.83 ± 0.36
feed uptake (C57B1/6J mice [2]; TCDD 6.9 μg/kg + UDCA 0.125 wt %, 40 days): 3.83 ± 0.36
feed uptake (C57B1/6J mice [2]; TCDD 6.9 μg/kg + UDCA 0.125 wt %, 50 days): 3.19 ± 0.13
feed uptake (C57B1/6J mice [2]; TCDD 6.9 μg/kg + UDCA 0.125 wt %, 60 days): 2.59 ± 0.23
feed uptake (C57B1/6J mice [2]; TCDD 6.9 μg/kg + UDCA 0.25 wt %, 10 days): 4.39 ± 0.79
feed uptake (C57B1/6J mice [2]; TCDD 6.9 μg/kg + UDCA 0.25 wt %, 20 days): 4.86 ± 0.90
feed uptake (C57B1/6J mice [2]; TCDD 6.9 μg/kg + UDCA 0.25 wt %, 30 days): 3.78 ± 0.57
feed uptake (C57B1/6J mice [2]; TCDD 6.9 μg/kg + UDCA 0.25 wt %, 40 days): 3.78 ± 0.57
feed uptake (C57B1/6J mice [2]; TCDD 6.9 μg/kg + UDCA 0.25 wt %, 50 days): 3.18 ± 0.56
feed uptake (C57B1/6J mice [2]; TCDD 6.9 μg/kg + UDCA 0.25 wt %, 60 days): 2.90 ± 0.30
feed uptake (C57B1/6J mice [2]; TCDD 6.9 μg/kg + UDCA 0.5 wt %, 10 days): 4.48 ± 0.67
feed uptake (C57B1/6J mice [2]; TCDD 6.9 μg/kg + UDCA 0.5 wt %, 20 days): 4.00 ± 1.11
feed uptake (C57B1/6J mice [2]; TCDD 6.9 μg/kg + UDCA 0.5 wt %, 30 days): 4.66 ± 0.67
feed uptake (C57B1/6J mice [2]; TCDD 6.9 μg/kg + UDCA 0.5 wt %, 40 days): 4.66 ± 0.67
feed uptake (C57B1/6J mice [2]; TCDD 6.9 μg/kg + UDCA 0.5 wt %, 50 days): 3.12 ± 0.40
feed uptake (C57B1/6J mice [2]; TCDD 6.9 μg/kg + UDCA 0.5 wt %, 60 days): 3.35 ± 1.56
feed uptake (C57B1/6J mice [2]; TCDD 27.5 μg/kg + UDCA 0.125 wt %, 10 days): 4.15 ± 0.64
feed uptake (C57B1/6J mice [2]; TCDD 27.5 μg/kg + UDCA 0.125 wt %, 20 days): 3.85 ± 0.43
feed uptake (C57B1/6J mice [2]; TCDD 27.5 μg/kg + UDCA 0.125 wt %, 30 days): 3.99 ± 0.34
feed uptake (C57B1/6J mice [2]; TCDD 27.5 μg/kg + UDCA 0.125 wt %, 40 days): 3.72 ± 0.21
feed uptake (C57B1/6J mice [2]; TCDD 27.5 μg/kg + UDCA 0.125 wt %, 50 days): 2.90 ± 0.98
feed uptake (C57B1/6J mice [2]; TCDD 27.5 μg/kg + UDCA 0.125 wt %, 60 days): 2.96 ± 0.29
feed uptake (C57B1/6J mice [2]; TCDD 27.5 μg/kg + UDCA 0.25 wt %, 10 days): 4.07 ± 0.40
feed uptake (C57B1/6J mice [2]; TCDD 27.5 μg/kg + UDCA 0.25 wt %, 20 days): 3.41 ± 0.71
feed uptake (C57B1/6J mice [2]; TCDD 27.5 μg/kg + UDCA 0.25 wt %, 30 days): 3.59 ± 0.38
feed uptake (C57B1/6J mice [2]; TCDD 27.5 μg/kg + UDCA 0.25 wt %, 40 days): 3.32 ± 0.39
feed uptake (C57B1/6J mice [2]; TCDD 27.5 μg/kg + UDCA 0.25 wt %, 50 days): 3.16 ± 0.24
feed uptake (C57B1/6J mice [2]; TCDD 27.5 μg/kg + UDCA 0.25 wt %, 60 days): 3.10 ± 0.77
feed uptake (C57B1/6J mice [2]; TCDD 27.5 μg/kg + UDCA 0.5 wt %, 10 days): 4.31 ± 1.49
feed uptake (C57B1/6J mice [2]; TCDD 27.5 μg/kg + UDCA 0.5 wt %, 20 days): 4.67 ± 1.13
feed uptake (C57B1/6J mice [2]; TCDD 27.5 μg/kg + UDCA 0.5 wt %, 30 days): 3.99 ± 0.36
feed uptake (C57B1/6J mice [2]; TCDD 27.5 μg/kg + UDCA 0.5 wt %, 40 days): 3.49 ± 0.57
feed uptake (C57B1/6J mice [2]; TCDD 27.5 μg/kg + UDCA 0.5 wt %, 50 days): 3.18 ± 0.55
feed uptake (C57B1/6J mice [2]; TCDD 27.5 μg/kg + UDCA 0.5 wt %, 60 days): 3.17 ± 0.49
feed uptake (C57B1/6J mice [2]; TCDD 110.0 μg/kg + UDCA 0.125 wt %, 10 days): 3.77 ± 0.43
feed uptake (C57B1/6J mice [2]; TCDD 110.0 μg/kg + UDCA 0.125 wt %, 20 days): 3.64 ± 1.16
feed uptake (C57B1/6J mice [2]; TCDD 110.0 μg/kg + UDCA 0.125 wt %, 30 days): 2.94 ± 0.64
feed uptake (C57B1/6J mice [2]; TCDD 110.0 μg/kg + UDCA 0.125 wt %, 40 days): 1.99 ± 0.58
feed uptake (C57B1/6J mice [2]; TCDD 110.0 μg/kg + UDCA 0.25 wt %, 10 days): 3.65 ± 0.33
feed uptake (C57B1/6J mice [2]; [3]): 3.09 ± 0.44
feed uptake (C57B1/6J mice [2]; [4]): 3.23 ± 0.55
feed uptake (C57B1/6J mice [2]; [5]): 3.06 ± 1.89
feed uptake (C57B1/6J mice [2]; [6]): 3.87 ± 0.57
feed uptake (C57B1/6J mice [2]; [7]): 3.77 ± 0.62
feed uptake (C57B1/6J mice [2]; [8]): 3.39 ± 0.24
feed uptake (C57B1/6J mice [2]; [9]): 2.72 ± 0.72
feed uptake (C57B1/6J mice [2]; [10]): 2.19 ± 0.22
feed uptake (C57B1/6J mice [2]; [11]): 2.05 ± 0.62
